One block for each substance: values may come before it.
Legend:
[1] = tested on: GFP-LC3B K51A; assay: Co-immunoprecipitation with GFP-LC3B K51A; assay type: binding, human; settings: α-GFP IP, Western blot
Description: (§1) Cells were scraped, centrifuged at 500 g for 5 min, and lysed in 150 µL CHAPS lysis buffer (2% CHAPS, 1% Triton X-100, 137 mM NaCl, 2 mM EDTA, 10% glycerol, and 20 mM Tris-HCl, pH 8.0) containing protease and phosphatase inhibitors. 5 µL of total lysate was kept as Input sample and 145 µL of cell lysate was incubated with 12.5 µL α-GFP (1:40, Roche)-coupled Dynabeads Protein G (purchased from Invitrogen) for 2 hrs at 4 °C. This step was followed by three washing steps using 0.02% Tween-20/PBS and immunoprecipitated proteins were eluted from Dynabeads by adding 4X LDS buffer (purchased from Invitrogen) and 10X sample reducing agent (purchased from Invitrogen) to the beads. Heating at 70 °C for 10 min will denaturized the proteins to analyze them by Western blotting.

[2] = tested on: EGFP-LC3B K49A; assay: Co-immunoprecipitation with EGFP-LC3B K49A; assay type: binding, human; settings: Figs S3 and S7; vs wild type LC3B
Description: as §1

[3] = biological target: T1, LC3B K49A (Homo sapiens, UniProt Q9GZQ8, K49A); assay: ITC, LC3B K49A mutant; assay type: binding
T1 construct: Ub3 (ubiquitin fusion) (N); made in house
Description: (§5) Before the experiment, the proteins and peptides were equilibrated with a buffer containing 40 mM Na2HPO4, 80 mM NaCl at pH 7.0, and supplied with 5 mM protease inhibitors cocktail.
(§6) All titration experiments were performed at 25 °C using a VP-ITC microcalorimeter (MicroCal Inc., MA, USA). The ITC-data were analyzed with the ITC-Origin 7.0 software with a “one-site” binding model. The peptides at concentrations of 0.31 mM were titrated into 0.018 mM LC3B proteins in 25 steps. The proteins and peptides concentrations were calculated from the UV-absorption at 280 nm by Nanodrop spectrophotometer (Thermo Fisher Scientific, DE, USA).

[4] = biological target: T2, LC3B wild type (Homo sapiens, UniProt Q9GZQ8); assay: Isothermal titration calorimetry (ITC), LC3B wild type; assay type: binding
T2 construct: Ub3 (ubiquitin fusion) (N); made in house
Description: as §5, §6

[5] = tested on: HeLa cells (recruitment of LC3B to mitochondria); assay: LC3B positive vesicles per 100 cells, immunofluorescence microscopy; assay type: cell-based; settings: 10 µM CCCP for 2 hours, vs wild type and S34,35A, three independent experiments, Fig. 3b
Description: (§2) HeLa cells were seeded, grown on coverslips or 8-well microscopy slides (ibidi) and transfected with either wild type or mutant Nix or Bnip3 together with wild type or mutant LC3B constructs using JetPRIME transfection reagent according to manufacturer’s instructions. 24 hrs post transfection cells were fixed in 2% or 4% paraformaldehyde and permeabilized with 0,1% Triton X-100 solution. Cells were blocked in 5% BSA/PBS/0.1% Triton X-100 for 1 hr at room temperature or 4 °C overnight. Primary and secondary antibodies were diluted in blocking solution and washed in 0,1% Triton X-100/PBS. Coverslips were mounted in Prolong mounting media (Invitrogen). Cells in 8-well microscopy slides were placed in PBS following staining. Cells were imaged using a Zeiss AxioVision or DeltaVision RT microscope system (Applied Precision). Quantification of Nix-LC3B colocalization was performed as follows: for each Nix construct, LC3B positive dots (signals) were numbered in 100 cells. Only clear and well-defined LC3B signals are taken into consideration, while weak and oversized signals were excluded from the analysis.

[6] = tested on: GST-LC3B; assay: GST pull-down with GST-LC3B wild type; assay type: binding, human; settings: for interaction with GST-LC3B: Fig. 1b, triplicates; for interaction with GST-LC3B wild type: Flag-Nix in cell lysate, Fig. 3a
Description: (§3) GST fusions of various proteins (pGEX plasmids) were expressed in BL21 E. coli. Fusion protein expression was induced by adding 0.5 mM IPTG for 4 hrs. Bacteria were lysed in 20 mM Tris-HCl, pH 7.5, 10 mM EDTA, pH 8.0, 5 mM EGTA, 150 mM NaCl supplemented with 2 mg/ml lysozyme. GST fusion proteins were subsequently bound to pre-washed Glutathione-Sepharose 4B beads (GE Healthcare). After several washes, fusion protein-bound beads were used directly in binding assays.
(§4) HEK293 or HeLa cells were transfected with expression constructs encoding the protein of interest using JetPRIME (Polyplus Transfection). 24 hrs post-transfection cells were lysed in 50 mM HEPES, pH 7.5, 150 mM NaCl, 1 mM EDTA pH 8.0, 1 mM EGTA, 10% glycerol, 1% Triton X-100, 25 mM NaF, […] and lysates were incubated for 4 hrs with immobilized GST-fusion proteins at 4 °C. Following 5 washes, beads with co-precipitated proteins were resuspended in 2x SDS-PAGE loading buffer, boiled and loaded onto 10% or 12% SDS-PAGE gels for analysis. All GST pull-down experiments were performed in triplicates.

[7] = tested on: GST-LC3A; assay: GST pull-down with GST-LC3A; assay type: binding, human; settings: Fig. 1b, triplicates
Description: as §3, §4

[8] = tested on: GFP-LC3B wild type; assay: Co-immunoprecipitation with GFP-LC3B wild type; assay type: binding, human; settings: α-GFP IP, Western blot
Description: as §1

[9] = tested on: EGFP-LC3B R10A; assay: Co-immunoprecipitation with EGFP-LC3B R10A; assay type: binding, human; settings: α-GFP IP, 24 hrs post transfection, Fig. S5a
Description: as §1

[10] = tested on: HeLa cells expressing GFP-LC3B wild type; assay: Colocalization / sequestration of mitochondria with GFP-LC3B wild type, fluorescence microscopy; assay type: cell-based; settings: Fig. 4a
Description: as §2
HeLa cells were plated in 8-well microscopy µ-slides (ibidi) were transfected GFP-LC3 and RFP-Nix WT, S34,35A or S34,35E. From Z-stacks, single cells were cropped for analysis by ImageJ. Binary masks for each slice within ≥10 representative Z-stacks per condition of (i) Nix-labeled mitochondria and (ii) GFP-LC3 were generated by image segmentation. Slice-by-slice co-localization of mitochondrial and AV masks were calculated using the Boolean AND function. All slices for each binary stack were summed, and the ratio of area calculated from mitochondrialy-localized AV over total mitochondria content is reported as a cellular fraction.

[11] = tested on: GST-LC3B K49A; assay: GST pull-down with GST-LC3B K49A; assay type: binding, human; settings: Fig. 3a, vs wild type LC3B
Description: as §3, §4

[12] = tested on: GST-LC3B; settings: ref [17]; cited from earlier work
Description: Recently, it was determined that phosphorylation of serine residues juxtaposed to the LIR motif is responsible for the activation of receptor functions for Optn and Bnip3[5],[14]. […] Therefore, we mutated Ser34 and Ser35 in Nix to alanine, glutamic acid or aspartic acid re ...

[13] = tested on: EGFP-LC3B R11A; assay: Co-immunoprecipitation with EGFP-LC3B R11A; assay type: binding, human; settings: α-GFP IP, 24 hrs post transfection, Fig. S5a
Description: as §1

[14] = tested on: HeLa cells expressing GFP-LC3B K51A; assay: Colocalization with GFP-LC3B K51A, fluorescence microscopy; assay type: cell-based; settings: Fig. 4d,e
Description: as §2, with “Only clear and well-defined LC3B signals are taken into consideration, while weak and oversized signals were excluded from the analysis.” left out
HeLa cells were plated in 8-well microscopy µ-slides (ibidi) were transfected GFP-LC3 and RFP-Nix WT, S34,35A or S34,35E. […] Slice-by-slice co-localization of mitochondrial and AV masks were calculated using the Boolean AND function. All slices for each binary stack were summed, and the ratio of area calculated from mitochondrialy-localized AV over total mitochondria content is reported as a cellular fraction.

[15] = tested on: cells expressing LC3B K49A; assay: Colocalization with LC3B K49A, fluorescence microscopy; assay type: cell-based; settings: vs wild type LC3B
Description: as §2

[16] = tested on: HEK293 cells (mitochondrial loss); assay: Mitochondrial removal by flow cytometry; assay type: cell-based; settings: HEK293, GFP-Nix, 10 μM CCCP 24 hours; vs wild type
Description: HEK293 cells were transfected with GFP expression constructs encoding the protein of interest using JetPRIME (Polyplus Transfection). 24 hrs post-transfection cells were treated with 10 µM CCCP for 24 hrs. After treatment, cells were washed with PBS, trypsinized with trypsin for 5 min and resuspended by gentle pipetting. Trypsin-mediated digestion was arrested by the addition of DMEM supplemented with 10% FBS and cells were centrifuged at 500 g for 5 min. To remove cell clumps, cells were resuspended in PBS and filtered through the 70 µm Cell Strainer (BD Falcon). Approximately 10^6 cells were acquired for further flow cytometry analysis. Before fixation, cells were washed twice with FACS buffer (2% FBS, 0,02% NaN3 in PBS) and each time centrifuged at 500 g for 5 min. Cells were fixed with freshly prepared 4% paraformaldehyde for 10 min at room temperature, washed twice with FACS buffer and finally resuspended in […] prior to analysis. […] The acquired data were gated for singlets by generating FSC-A vs FSC-H plot after which dead cells were excluded and the mean fluorescence in FL1 channel was collected. The mean fluorescence of the CCCP and CCCP/Baf treated samples was compared with the untreated control and the results were expressed as a percentage of the retained mitochondria of at least two independent experiments. Results were analyzed using FlowLogic software.

Substance: Bnip3 wild type: mitophagy receptor Bnip3, homolog of Nix [reference compound]
co-immunoprecipitation with GFP-LC3B K51A [1]: does not
affinity to LC3B K49A (in words) [2]: increased affinity

affinity to LC3B K49A (in words) [3]: weak
affinity to wild type LC3B (in words) [4]: weak
Substance: SQQGGWGTVFSLESEE [arbitrary LIR-similar peptide, residues 196–210 of the human protein BCL2L13 - analog of the yeast Atg32 protein]

Substance: Nix S34,35D: phosphomimetic Nix double mutant
recruitment of LC3B-positive vesicles [5]: increased recruitment of LC3B-positive vesicles compared to wild type and S34,35A

Substance: Nix S35E: single phosphomimetic Nix mutant
interaction with GST-LC3B [6]: stronger than wild type Nix but weaker than the double serine phosphomimetic S34,35D Nix mutant
interaction with GST-LC3A [7]: stronger than wild type Nix but weaker than the double serine phosphomimetic S34,35D Nix mutant

Substance: Bnip3S17,24E: Bnip3 S17,24E mutant [reference compound]
co-immunoprecipitation with GFP-LC3B K51A [1]: absent
co-immunoprecipitation with GFP-LC3B wild type [8]: strongly bound

Substance: Nix S34E: single phosphomimetic Nix mutant
interaction with GST-LC3B [6]: stronger than wild type Nix but weaker than the double serine phosphomimetic S34,35D Nix mutant
interaction with GST-LC3A [7]: stronger than wild type Nix but weaker than the double serine phosphomimetic S34,35D Nix mutant

Substance: Nix wild type: mitophagy receptor Nix, wild type, expressed in cells
interaction with GST-LC3B [6]: considerably weaker than with LC3A
co-immunoprecipitation with GFP-LC3B K51A [1]: fails to coimmunoprecipitate
co-immunoprecipitation with LC3B R10A [9]: do not coimmunoprecipitate
co-immunoprecipitation with GFP-LC3B wild type [8]: no interaction
targeting of mitochondria to LC3B autophagosomes / colocalization with GFP-LC3B [10]: shows colocalization
interaction with GST-LC3B K49A ([11]; listed as Nix): increased affinity
interaction with GST-LC3B K49A ([11]; listed as wild type Nix): strongly increased binding
interaction rank of LC3B among Nix partners [12]: weakest
co-immunoprecipitation with LC3B R11A [13]: do not coimmunoprecipitate
colocalization with GFP-LC3B K51A [14]: does not colocalize

Substance: Nix S34,35E: phosphomimetic Nix double mutant
interaction with GST-LC3B wild type [6]: robustly bound
co-immunoprecipitation with GFP-LC3B K51A [1]: unable to immunoprecipitate
recruitment of LC3B-positive vesicles [5]: increased recruitment of LC3B-positive vesicles compared to wild type and S34,35A
co-immunoprecipitation with GFP-LC3B wild type [8]: strong interaction
colocalization with LC3B K49A [15]: increased
targeting of mitochondria to LC3B autophagosomes / colocalization with GFP-LC3B [10]: enhanced targeting of mitochondria to LC3B autophagosomes relative to wild type Nix
targeting of mitochondria to LC3B autophagosomes / colocalization with GFP-LC3B ([10]; listed as S34,35E): enhanced colocalization
mitochondrial loss (fraction of removed mitochondria), in words [16]: more rapid
colocalization with GFP-LC3B K51A [14]: loss of cellular colocalization

Substance: Nix S34,35A: Nix with serine-to-alanine mutations to disable phosphorylation
interaction with GST-LC3B wild type [6]: did not interact
co-immunoprecipitation with GFP-LC3B wild type [8]: no interaction
targeting of mitochondria to LC3B autophagosomes / colocalization with GFP-LC3B [10]: lack of such a recruitment
targeting of mitochondria to LC3B autophagosomes / colocalization with GFP-LC3B ([10]; listed as RFP-Nix S34,35A): does not colocalize
interaction with GST-LC3B K49A [11]: strongly increased binding
mitochondrial loss (fraction of removed mitochondria), in words [16]: slightly reduced compared to wild type

Reference: PMC5430633, “Phosphorylation of the mitochondrial autophagy receptor Nix enhances its interaction with LC3 proteins” (Scientific Reports, 2017)
